This is an account of results in US9617289B2, “RSV antiviral compounds” (JANSSEN R&D IRELAND, priority 2012, dated 2017).

The subject of data set [1] is rgRSV224 virus. As to the kind of experiment: Antiviral activity: inhibition of rgRSV224 (GFP-expressing RSV) replication in HeLa cells. In kind it is cell-based, respiratory syncytial virus. As to conditions: for EC50: human respiratory syncytial virus, HeLa, 72 h. In a few lines:
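HeLa cells infected with GFP-expressing rgRSV224 at MOI 0.02 alongside 4-fold compound dilutions in duplicate (0.5% DMSO). Incubated 3 days at 37 °C; EC50 taken as 50% inhibition of GFP expression by laser microscopy. CC50 measured in parallel uninfected cells by ATP content after 3 days; SI = CC50/EC50.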

[2] abbreviates: read-out: pEC50, rgRSV224 (MOI=0.02) in HeLa cells, GFP expression three days post-virus exposure (converted).
Setting [3] is: read-out: RSV-wt_pEC50, rgRSV224 (MOI=0.02) in HeLa cells, GFP expression three days post-virus exposure.

Where a name gives a salt, the structure may show the parent alone. Read-outs that look alike come from different tables or passages of the source.

Regarding `N#CCCCn1c(CN2C(=O)C3(CCNCC3)c3ccncc32)cc2cc(Cl)ccc21` (as salt: hydrochloride) [Compound 78, 4-(5-chloro-2-((2′-oxospiro[piperidine-4,3′-pyrrolo[2,3-c]-pyridin]-1′(2′H)-yl)methyl)-1H-indol-1-yl)butanenitrile hydrochloride], the melting point (commonly the temperature, or range, at which the solid turns liquid) is 82.02 °C.

Consider `CS(=O)(=O)CCCn1c(CN2C(=O)C3(CN(CC(F)(F)F)C3)c3ccccc32)nc2cc(Cl)ccc21` [Compound 9, 1′-[[5-chloro-1-(3-methylsulfonylpropyl)benzimidazol-2-yl]methyl]-1-(2,2,2-trifluoroethyl)spiro[azetidine-3,3′-indoline]-2′-one], for which the melting point worked out at 200.68 °C. The EC50 in data set [1] (setting [2]) was 398 pM.

`CS(=O)(=O)CCCn1c(CN2C(=O)C3(CCOCC3)c3ccc(F)cc32)nc2cc(Cl)ccc21` [Compound 10, 1-((5-chloro-1-(3-(methylsulfonyl)propyl)-1H-benzo[d]-imidazol-2-yl)methyl)-6-fluoro-2′,3′,5′,6′-tetrahydro-spiro[indoline-3,4′-pyran]-2-one] gave a melting point of 207.14 °C. The EC50 in data set [1] (setting [2]) was 2000 pM.

On to `CS(=O)(=O)CCCn1c(CN2C(=O)C3(CC(O)C3)c3ccccc32)nc2cc(Cl)ccc21` [Compound 11, (3S)-1′-({5-chloro-1-[3-(methylsulfonyl)propyl]-1H-benzimidazol-2-yl}methyl)-3-hydroxyspiro[cyclobutane-1,3′-indol]-2′(1′H)-one], for which the melting point came out at 232.91 °C. In addition, the EC50 in data set [1] (setting [2]) is 398 pM.

For `CS(=O)(=O)CCCn1c(CN2C(=O)C3(CC(O)C3)c3ccccc32)nc2cc(Cl)ccc21` [Compound 12, (3R)-1′-({5-chloro-1-[3-(methylsulfonyl)propyl]-1H-benzimidazol-2-yl}methyl)-3-hydroxyspiro[cyclobutane-1,3′-indol]-2′(1′H)-one], the melting point came to 209.84 °C. The pEC50 (usually −log10 of the EC50, conventionally taken in molar units) in data set [1] (rgRSV224 (MOI=0.02) in HeLa cells, GFP expression three days post-virus exposure) was determined as 9.3.

`CC(C)C(=O)N1CC2(C1)C(=O)N(Cc1nc3cc(Cl)ccc3n1CCCS(C)(=O)=O)c1ccccc12` [Compound 28, 1′-({5-chloro-1-[3-(methylsulfonyl)propyl]-1H-benzimidazol-2-yl}methyl)-1-(2-methylpropanoyl)-spiro[azetidine-3,3′-indol]-2′(1′H)-one] had a melting point of 133.12 °C. Besides, in data set [1] (setting [2]), the EC50 was < 158 pM.

`CS(=O)(=O)CCCn1c(CN2C(=O)C3(CN(S(=O)(=O)C4CC4)C3)c3ccccc32)nc2cc(Cl)ccc21` [Compound 29, 1′-({5-chloro-1-[3-(methylsulfonyl)propyl]-1H-benzimidazol-2-yl}methyl)-1-(cyclopropylsulfonyl)-spiro[azetidine-3,3′-indol]-2′(1′H)-one] came in with a melting point of 191.15 °C. The EC50 in data set [1] (setting [2]) is < 158 pM.

As for `CC(=O)N1CC2(C1)C(=O)N(Cc1nc3cc(Cl)ccc3n1CCCS(C)(=O)=O)c1ccccc12` [Compound 30, 1-acetyl-1′-({5-chloro-1-[3-(methylsulfonyl)propyl]-1H-benzimidazol-2-yl}methyl)spiro[azetidine-3,3′-indol]-2′(1′H)-one], the melting point came to 221.24 °C. The EC50 in data set [1] (setting [2]) was 251 pM.

Regarding `CC(=O)OCCOC(=O)N1CCC2(CC1)C(=O)N(Cc1cc3cc(Cl)ccc3n1CCCC#N)c1cnccc12` [Compound 150, 2-(Acetyloxy)ethyl 1′-{[5-chloro-1-(3-cyanopropyl)-1H-indol-2-yl]methyl}-2′-oxo-1′,2′-dihydro-1H-spiro[piperidine-4,3′-pyrrolo-[2,3-c]pyridine]-1-carboxylate], the EC50 in data set [1] (setting [3]) was 49 pM.

Turning to `CC(C)(O)C(=O)N1CC2(C1)C(=O)N(Cc1cc3cc(Cl)ccc3n1CCCS(C)(=O)=O)c1ccccc12` [Compound 152, 1′-({5-Chloro-1-[3-(methylsulfonyl)propyl]-1H-indol-2-yl}methyl)-1-(2-hydroxy-2-methylpropanoyl)spiro[azetidine-3,3′-indol]-2′(1′H)-one], in data set [1] (setting [3]), the EC50 is 1580 pM.

Turning to `CC(C)(O)C(=O)N1CCC2(CC1)C(=O)N(Cc1c(C(N)=O)c3cc(Cl)ccc3n1CCCCF)c1cnccc12` [Compound 153, 5-Chloro-1-(4-fluorobutyl)-2-{[1-(2-hydroxy-2-methylpropanoyl)-2′-oxospiro[piperidine-4,3′-pyrrolo[2,3-c]pyridin]-1′(2′H)-yl]methyl}-1H-indole-3-carboxamide], the EC50 in data set [1] (setting [3]) is 57.5 pM.

Consider `CC(C)(O)C(=O)N1CCC2(C1)C(=O)N(Cc1nc3cc(Cl)ccc3n1CCCC#N)c1ccccc12` (stereo not drawn) [Compound 154, 4-(5-Chloro-2-{[1′-(2-hydroxy-2-methylpropanoyl)-2-oxospiro[indole-3,3′-pyrrolidin]-1(2H)-yl]methyl}-1H-benzimidazol-1-yl)butanenitrile], for which the EC50 in data set [1] (setting [3]) was 1170 pM.

Regarding `CC(C)(O)C(=O)N1CCC2(CC1)C(=O)N(Cc1cc3cc(Cl)ccc3n1CCCCO)c1cnccc12` [Compound 155, 1′-{[5-Chloro-1-(4-hydroxybutyl)-1H-indol-2-yl]methyl}-1 - (2-hydroxy-2-methylpropanoyl)spiro[piperidine-4,3′-pyrrolo[2,3-c]pyridin]-2′(1′H)-one], in data set [1] (setting [3]), the EC50 is 170 pM.

For the compound `CC(C)(C)OC(=O)N1CCC2(CC1)C(=O)N(Cc1c(C(N)=O)c3cc(Cl)ccc3n1CCCCF)c1cnccc12` [Compound 156, tert-Butyl 1′-{[3-carbamoyl-5-chloro-1-(4-fluorobutyl)-1H-indol-2-yl]methyl}-2′-oxo-1′,2′-dihydro-1H-spiro[piperidine-4,3′-pyrrolo[2,3-c]pyridine]-1-carboxylate], the EC50 in data set [1] (setting [3]) is 67.6 pM.

As to `CC(C)(C)OC(=O)N1CCC2(C1)C(=O)N(Cc1nc3cc(Cl)ccc3n1CCCC#N)c1ccccc12` (stereo not drawn) [Compound 157, tert-Butyl 1-{[5-chloro-1-(3-cyanopropyl)-1H-benzimidazol-2-yl]methyl}-2-oxo-1,2-dihydro-1′H-spiro[indole-3,3′-pyrrolidine]-1′-carboxylate], the EC50 in data set [1] (setting [3]) is 3980 pM.

Turning to `O=C1CC2(C1)C(=O)N(Cc1nc3cc(Cl)ccc3n1CCCCF)c1ccccc12` [Compound 158, 1-{[5-Chloro-1-(4-fluorobutyl)-1H-benzimidazol-2-yl]methyl}-3H-spiro[cyclobutane-1,3′-indole]-2′,3(1′H)-dione], the EC50 in data set [1] (setting [3]) is 575 pM.

For `O=C1N(Cc2cc3cc(Cl)ccc3n2CCCCF)c2cnccc2C12CCNCC2` [Compound 162], the EC50 in data set [1] (setting [3]) was 4570 pM.

As to `CC(C)(C)OC(=O)N1CC2(C1)C(=O)N(Cc1cc3cc(Cl)ccc3n1CCCS(C)(=O)=O)c1ccccc12` [Compound 163, tert-Butyl 1′-({5-chloro-1-[3-(methylsulfonyl)propyl]-1H-indol-2-yl}methyl)-2′-oxo-1′,2′-dihydro-1H-spiro[azetidine-3,3′-indole]-1-carboxylate], the EC50 in data set [1] (setting [3]) is 200 pM.

Consider `N#CCCCn1c(CN2C(=O)C3(CN(C(=O)C(O)CO)C3)c3ccccc32)cc2cc(Cl)ccc21` (stereo not drawn) [Compound 165, 4-(5-chloro-2-((1-(2,3-dihydroxypropanoyl)-2′-oxospiro[azetidine-3,3′-indolin]-1′-yl)methyl)-1H-indol-1-yl)butanenitrile], for which, in data set [1] (setting [3]), the EC50 was 145 pM.

As to `O=C(C(O)CO)N1CCC2(CC1)C(=O)N(Cc1cc3cc(Cl)ccc3n1CCCCF)c1cnccc12` (stereo not drawn) [Compound 167, 1′-{[5-Chloro-1-(4-fluorobutyl)-1H-indol-2-yl]methyl}-1-(2,3-dihydroxypropanoyl)spiro[piperidine-4,3′-pyrrolo[2,3-c]pyridin]-2′(1′H)-one], the EC50 in data set [1] (setting [3]) was 123 pM.

In the case of `CNC(=O)O[C@H]1C[C@@]2(C1)C(=O)N(Cc1nc3cc(Cl)ccc3n1CCCC#N)c1ccccc12` [Compound 168, (1r,3r)-1′-((5-chloro-1-(3-cyanopropyl)-1H-benzo[d]imidazol-2-yl)methyl)-2′-oxospiro[cyclobutane-1,3′-indolin]-3-yl methylcarbamate], the EC50 in data set [1] (setting [3]) was 34.7 pM.

In the case of `CC(=O)NS(=O)(=O)N1CC2(C1)C(=O)N(Cc1nc3cc(Cl)ccc3n1CCCC#N)c1ccccc12` [Compound 170, N-[(1′-{[5-Chloro-1-(3-cyanopropyl)-1H-benzimidazol-2-yl]methyl}-2′-oxo-1′,2′-dihydro-1H-spiro[azetidine-3,3′-indol]-1-yl)sulfonyl]acetamide], the EC50 in data set [1] (setting [3]) was 269 pM.

In the case of `N#CCCCn1c(CN2c3ccccc3[C@]3(C[C@@H](OC(=O)NC4CC4)C3)C2=O)nc2cc(Cl)ccc21` [Compound 173, (1r,3r)-1′-((5-chloro-1-(3-cyanopropyl)-1H-benzo[d]imidazol-2-yl)methyl)-2′-oxospiro[cyclobutane-1,3′-indolin]-3-yl cyclopropylcarbamate], the EC50 in data set [1] (setting [3]) was 22.4 pM.

Take `CC1CC2(CC(C)O1)C(=O)N(Cc1nc3cc(Cl)ccc3n1CCCS(C)(=O)=O)c1cnccc12` (stereo not drawn) [Compound 174, 1′-({5-Chloro-1-[3-(methylsulfonyl)propyl]-1H-benzimidazol-2-yl}methyl)-2,6-dimethyl-2,3,5,6-tetrahydrospiro[pyran-4,3′-pyrrolo[2,3-c]pyridin]-2′(1′H)-one]: the EC50 in data set [1] (setting [3]) is 17800 pM.

Consider `CC(C)(O)C(=O)N1CC2(C1)C(=O)N(Cc1nc3cc(Cl)ccc3n1CCCCO)c1ccccc12` [Compound 175, 1′-{[5-Chloro-1-(4-hydroxybutyl)-1H-benzimidazol-2-yl]methyl}-1-(2-hydroxy-2-methylpropanoyl)spiro[azetidine-3,3′-indol]-2′(1′H)-one], for which the EC50 in data set [1] (setting [3]) is 74.1 pM.

In the case of `O=C(NS(=O)(=O)N1CCC2(CC1)C(=O)N(Cc1cc3cc(Cl)ccc3n1CCCCF)c1cnccc12)C1CC1` [Compound 184, N-[(1′-{[5-Chloro-1-(4-fluorobutyl)-1H-indol-2-yl]methyl}-2′-oxo-1′,2′-dihydro-1H-spiro[piperidine-4,3′-pyrrolo[2,3-c]pyridin]-1-yl)sulfonyl]cyclopropanecarboxamide], the EC50 in data set [1] (setting [3]) was 219 pM.
